Where a name gives a salt, the structure may show the parent alone. Read-outs that look alike come from different tables or passages of the source. Marks after values point to notes of the source that are not given here.
How the values were obtained:
hERG channel = target: T1, hERG channel (Homo sapiens, UniProt Q12809); assay: hERG potassium channel inhibition test (automatic patch clamp); type: cell-based; details: 10 μM, hERG channel-stably expressing CHO cells, tail current
T1 construct: host or cells: CHO cells
T1 sequence (Q12809 whole entry): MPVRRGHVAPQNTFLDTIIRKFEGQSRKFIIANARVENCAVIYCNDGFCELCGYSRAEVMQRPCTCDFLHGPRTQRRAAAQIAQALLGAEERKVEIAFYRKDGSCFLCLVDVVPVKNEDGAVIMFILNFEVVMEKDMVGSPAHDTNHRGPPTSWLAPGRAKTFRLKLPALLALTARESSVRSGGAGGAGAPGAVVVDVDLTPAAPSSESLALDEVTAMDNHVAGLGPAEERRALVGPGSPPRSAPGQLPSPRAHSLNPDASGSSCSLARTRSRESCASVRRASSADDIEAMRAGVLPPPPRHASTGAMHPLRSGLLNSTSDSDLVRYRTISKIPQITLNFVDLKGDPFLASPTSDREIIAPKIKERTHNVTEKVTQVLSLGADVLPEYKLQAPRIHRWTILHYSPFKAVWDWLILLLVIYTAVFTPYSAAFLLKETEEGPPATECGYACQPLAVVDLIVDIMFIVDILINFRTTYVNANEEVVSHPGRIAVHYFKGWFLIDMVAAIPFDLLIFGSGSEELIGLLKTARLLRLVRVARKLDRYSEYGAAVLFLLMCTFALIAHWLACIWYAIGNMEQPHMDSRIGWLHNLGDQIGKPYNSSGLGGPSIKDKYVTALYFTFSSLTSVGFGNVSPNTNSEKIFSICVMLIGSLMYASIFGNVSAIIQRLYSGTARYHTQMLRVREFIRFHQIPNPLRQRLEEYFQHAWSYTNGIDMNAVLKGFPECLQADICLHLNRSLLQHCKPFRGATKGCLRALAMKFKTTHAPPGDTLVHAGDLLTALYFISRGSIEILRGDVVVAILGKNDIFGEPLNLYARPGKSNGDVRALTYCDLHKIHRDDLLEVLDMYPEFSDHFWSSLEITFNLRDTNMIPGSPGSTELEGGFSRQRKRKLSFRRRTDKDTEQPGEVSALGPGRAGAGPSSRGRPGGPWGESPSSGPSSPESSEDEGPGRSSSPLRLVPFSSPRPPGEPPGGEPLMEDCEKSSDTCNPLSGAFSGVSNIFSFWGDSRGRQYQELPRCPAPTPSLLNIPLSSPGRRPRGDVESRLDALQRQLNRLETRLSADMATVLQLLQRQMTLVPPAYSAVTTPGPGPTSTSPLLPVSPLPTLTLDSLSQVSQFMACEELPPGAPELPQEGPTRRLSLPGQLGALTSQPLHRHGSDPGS
Method: The test was performed with Port-a-Patch automatic patch clump apparatus (Nanion Technologies) using hERG channel-stably expressing CHO cells (purchased from Channelopathy Foundation). The membrane potential of the cells was maintained at −80 mV, then there were applied a depolarization pulse at +20 mV for 1.5 seconds, and a following test pulse at −50 mV for 1.5 seconds at a frequency of 1 time per 10 seconds, and the hERG current was confirmed as a tail current induced by the test pulse. The test compound was dissolved in an extracellular fluid (137 mM NaCl, 4 mM KCl, 1.8 mM CaCl2, 1 mM MgCl2, 10 mM D(+)-glucose, 10 mM HEPES, pH 7.4), and the solution was refluxed at room temperature for 5 minutes. The inhibition ratio was obtained from the ratio of the tail current value observed after the compound was applied based on the tail current value observed before the compound was applied, which was taken as 100%.

human opioid μ receptor = target: T2, human opioid μ receptor (Homo sapiens, UniProt P35372); assay: Opioid receptor function test (Lance Ultra cAMP Kit), μ receptor; type: cell-based
T2 construct: host or cells: CHO cells
T2 sequence (P35372 whole entry): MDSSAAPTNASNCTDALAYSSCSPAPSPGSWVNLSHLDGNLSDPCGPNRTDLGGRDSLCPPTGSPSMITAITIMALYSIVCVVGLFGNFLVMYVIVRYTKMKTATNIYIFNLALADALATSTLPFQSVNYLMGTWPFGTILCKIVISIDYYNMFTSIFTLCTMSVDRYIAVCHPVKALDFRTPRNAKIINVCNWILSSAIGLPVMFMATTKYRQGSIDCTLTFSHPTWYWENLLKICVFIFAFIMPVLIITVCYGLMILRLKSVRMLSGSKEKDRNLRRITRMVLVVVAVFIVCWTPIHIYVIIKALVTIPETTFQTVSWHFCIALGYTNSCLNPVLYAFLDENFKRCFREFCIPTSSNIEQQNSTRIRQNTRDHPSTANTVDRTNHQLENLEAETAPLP

C57BL/6N male mice = assay: Mouse elevated plus maze test; type: in vivo; details: subcutaneous, dose not stated (FIGS. 3 to 5)
Method: For the test, 5 to 6 weeks old C57BL/6N male mice were used. On a plus maze apparatus consisting of a wall-less running route (open arm, width 6 cm, length 30 cm) and a running route with a wall (closed arm, width 6 cm, length 30 cm, height of wall 15 cm), and having a height of 40 cm, a mouse was put so as to be directed to the running route with a wall, and allowed to spontaneously enter into the plus maze. Each test substance was dissolved in saline or 0.005 N HCl in saline, and subcutaneously administered on the back 30 minutes before the start of the test. At the time of the start of the test, video recording with a video camera was started, the time at which the mouse entered into the plus maze is considered to be the start of the test, and exploratory behavior was recorded for 5 minutes. On the basis of the video image, staying time in the running routes were determined, and wall-less running route staying time ratio (%) was calculated.

human opioid κ receptor = target: T3, human opioid κ receptor (Homo sapiens, UniProt P41145); assay: cell-based
T3 construct: host or cells: CHO cells
T3 sequence (P41145 whole entry): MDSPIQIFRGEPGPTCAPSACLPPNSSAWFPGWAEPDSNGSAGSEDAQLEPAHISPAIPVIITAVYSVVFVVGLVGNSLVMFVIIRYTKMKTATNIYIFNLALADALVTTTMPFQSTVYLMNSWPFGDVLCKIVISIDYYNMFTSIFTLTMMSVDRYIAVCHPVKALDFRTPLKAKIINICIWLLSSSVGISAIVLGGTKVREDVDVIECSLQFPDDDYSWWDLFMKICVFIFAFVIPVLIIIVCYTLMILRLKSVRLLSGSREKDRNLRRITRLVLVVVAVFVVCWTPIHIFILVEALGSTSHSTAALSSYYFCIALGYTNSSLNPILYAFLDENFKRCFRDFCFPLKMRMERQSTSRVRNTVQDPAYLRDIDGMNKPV

OBX rats = assay: Hyperemotional reaction inhibition test using olfactory bulbectomized (OBX) rat; type: in vivo
Method: According to the method of Saitoh et al. (Saitoh A, Yamada M, Yamada M, Takahashi K, Yamaguchi K, Murasawa H, Nakatani A, Tatsumi Y, Hirose N, and Kamei J: Antidepressant-like effects of the delta-opioid receptor agonist SNC80 ((+)-4-[(alphaR)-alpha-[(2S,5R)-2,5-dimethyl-4-(2-propenyl)-1-piperazinyl]-(3-methoxyphenyl)methyl]-N,N-diethylbenzamide) in an olfactory bulbectomized rat model, Brain Res., 2008, 1208160-169), OBX rats were prepared by extracting the rat olfactory bulbs, and then breeding the rats in an isolated circumstance. Hyperemotional reaction was evaluated on the day 14 after the surgical operation and before the division into groups, and 2 hours after the administration on the days 1, 4, 7, 10, and 14 of the administration period according to the hyperemotional reaction evaluation criteria prepared by Gomita et al. (Gomita et al., Behavioral pharmacological and electroencephalographical studies of 7-chloro-1-methyl-5-phenyl-1H-1,5-benzodiazepine-2,4-(3H,5H:)-dione (Clobazam), Folia Pharmacologica Japonica, 82, 267 (1983)). The drug was subcutaneously administered once a day continuously over 14 days. As a positive control drug, fluoxetine, which is a selective serotonin reuptake inhibitor (SSRI), was used. As the solvent, a 1% cyclodextrin (CD) was used.

SD male rats = assay: Rat cerebral infarction-induced overactive bladder model (cystometry); type: in vivo
Method: A transient middle cerebral artery occlusion model was prepared by using 8 weeks old SD male rats under isoflurane inhalation anesthesia. On the next day, the cervix was slightly cut open again under the isoflurane inhalation anesthesia, and a catheter for administration was fixed in the jugular vein, and led to the back. A cystometry operation was also performed, and the other end of a cannula inserted into the bladder was led to the back, and connected to a cannula swivel.
On the day 4 after the cerebral ischemia operation, cystometry was performed under no anesthesia and with no restraint. Intravesical pressure was measured for the stable period, then a medium was intravenously administered, and the value of the pressure was measured over about 30 minutes as a value before test substance administration. Then, the test substance was cumulatively and intravenously administered from the lowest dose at intervals of about 30 minutes, and the value was measured for about 30 minutes after each administration. For the rats determined to show pollakiuria (urination interval was 10 minutes or shorter) in the measurement before the administration, static intravesical pressure, pressure at the time of urination, urination interval, and single urination amount were measured at each time point.

[1] = read-out: μ receptor Emax, starred: reaction rate at the maximum concentration (reference value)
[2] = read-out: κ receptor Emax, starred: reaction rate at the maximum concentration (reference value)

SMILES: O=C(c1cccc[n+]1[O-])N1C[C@H]2C[C@@]34CC[C@@H]1[C@@H]2[C@@]31CCN(CC2CC2)[C@@H]4Cc2ccc(O)cc21 [Example 1, 2-((1S,3aR,5aS,6R,11bR,11cS)-14-(cyclopropylmethyl)-10-hydroxy-2,3,3a,4,5,6,7,11c-octahydro-1H-6,11b-(epiminoethano)-1,5a-methanonaphtho[1,2-e]indole-3-carbonyl)pyridine 1-oxide]
- hERG channel inhibitory action (hERG channel): <50%
- Emax (human opioid μ receptor; [1]): 8.3%

SMILES: O=C(c1ccc[nH]c1=O)N1C[C@H]2C[C@@]34CC[C@@H]1[C@@H]2[C@@]31CCN(CC2CC2)[C@@H]4Cc2ccc(O)cc21 [Example 3, 3-((1S,3aR,5aS,6R,11bR,11cS)-14-(cyclopropylmethyl)-10-hydroxy-2,3,3a,4,5,6,7,11c-octahydro-1H-6,11b-(epiminoethano)-1,5a-methanonaphtho[1,2-e]indole-3-carbonyl)pyridin-2(1H)-one]
- hERG channel inhibitory action (hERG channel): <50%
- wall-less running route staying time ratio (C57BL/6N male mice): showed a tendency of increasing

SMILES: O=C(c1ccc[n+]([O-])c1)N1C[C@H]2C[C@@]34CC[C@@H]1[C@@H]2[C@@]31CCN(CC2CC2)[C@@H]4Cc2ccc(O)cc21 [Example 4, 3-((1S,3aR,5aS,6R,11bR,11cS)-14-(cyclopropylmethyl)-10-hydroxy-2,3,3a,4,5,6,7,11c-octahydro-1H-6,11b-(epiminoethano)-1,5a-methanonaphtho[1,2-e]indole-3-carbonyl)pyridine 1-oxide]
- Emax (human opioid μ receptor; [1]): 5.5%

SMILES: Cn1cccc(C(=O)N2C[C@H]3C[C@@]45CC[C@@H]2[C@@H]3[C@@]42CCN(CC3CC3)[C@@H]5Cc3ccc(O)cc32)c1=O [Example 6, 3-((1S,3aR,5aS,6R,11bR,11cS)-14-(cyclopropylmethyl)-10-hydroxy-2,3,3a,4,5,6,7,11c-octahydro-1H-6,11b-(epiminoethano)-1,5a-methanonaphtho[1,2-e]indole-3-carbonyl)-1-methylpyridin-2(1H)-one]
- Emax (human opioid κ receptor; [2]): 3.2%

SMILES: O=C(c1cccc(=O)[nH]1)N1C[C@H]2C[C@@]34CC[C@@H]1[C@@H]2[C@@]31CCN(CC2CC2)[C@@H]4Cc2ccc(O)cc21 [Example 7, 6-((1S,3aR,5aS,6R,11bR,11cS)-14-(cyclopropylmethyl)-10-hydroxy-2,3,3a,4,5,6,7,11c-octahydro-1H-6,11b-(epiminoethano)-1,5a-methanonaphtho[1,2-e]indole-3-carbonyl)pyridin-2(1H)-one]
- Emax (human opioid κ receptor; [2]): -0.9%
- hyperemotional reactions compared with the sham surgery group (OBX rats; 0.1 mg/kg s.c. once a day, on the day 7 of the administration period): restored the condition even to a level comparable to that of the rats of the sham surgery group
- hyperemotional reactions compared with the sham surgery group (OBX rats; 1 mg/kg s.c. once a day, on the day 4 of the administration period): restored the condition even to a level comparable to that of the rats of the sham surgery group
- hERG channel inhibitory action (hERG channel): <50%
- single urination amount (in words) (SD male rats; 0.01 and 0.1 mg/kg i.v.): dose-dependently increasing tendency
- urination interval (in words) (SD male rats; 0.01 and 0.1 mg/kg i.v.): dose-dependently increasing tendency
- pressure at the time of urination (in words) (SD male rats; at all the doses): did not affect
- static intravesical pressure (in words) (SD male rats; at all the doses): did not affect

SMILES: Cn1cc(C(=O)N2C[C@H]3C[C@@]45CC[C@@H]2[C@@H]3[C@@]42CCN(CC3CC3)[C@@H]5Cc3ccc(O)cc32)ccc1=O [Example 9, 5-((1S,3aR,5aS,6R,11bR,11cS)-14-(cyclopropylmethyl)-10-hydroxy-2,3,3a,4,5,6,7,11c-octahydro-1H-6,11b-(epiminoethano)-1,5a-methanonaphtho[1,2-e]indole-3-carbonyl)-1-methylpyridin-2(1H)-one]
- hERG channel inhibitory action (hERG channel): <50%
- Emax (human opioid μ receptor; ratio to maximum reaction of control drug DAMGO taken as 100%, read-out: μ receptor Emax): 16%
- wall-less running route staying time ratio (C57BL/6N male mice): showed a tendency of increasing

SMILES: Cn1c(C(=O)N2C[C@H]3C[C@@]45CC[C@@H]2[C@@H]3[C@@]42CCN(CC3CC3)[C@@H]5Cc3ccc(O)cc32)cccc1=O [Example 10, 6-((1S,3aR,5aS,6R,11bR,11cS)-14-(cyclopropylmethyl)-10-hydroxy-2,3,3a,4,5,6,7,11c-octahydro-1H-6,11b-(epiminoethano)-1,5a-methanonaphtho[1,2-e]indole-3-carbonyl)-1-methylpyridin-2(1H)-one]
- Emax (human opioid κ receptor; [2]): -0.7%
- hERG channel inhibitory action (hERG channel): <50%
- Emax (human opioid μ receptor; [1]): 6%
- wall-less running route staying time ratio (C57BL/6N male mice): showed a tendency of increasing

SMILES: O=C(c1cc[nH]c(=O)c1)N1C[C@H]2C[C@@]34CC[C@@H]1[C@@H]2[C@@]31CCN(CC2CC2)[C@@H]4Cc2ccc(O)cc21 [Example 11, 4-((1S,3aR,5aS,6R,11bR,11cS)-14-(cyclopropylmethyl)-10-hydroxy-2,3,3a,4,5,6,7,11c-octahydro-1H-6,11b-(epiminoethano)-1,5a-methanonaphtho[1,2-e]indole-3-carbonyl)pyridin-2(1H)-one]
- Emax (human opioid κ receptor; [2]): -2.5%

SMILES: O=C(c1cc(=O)cc[nH]1)N1C[C@H]2C[C@@]34CC[C@@H]1[C@@H]2[C@@]31CCN(CC2CC2)[C@@H]4Cc2ccc(O)cc21 [Example 14, 2-((1S,3aR,5aS,6R,11bR,11cS)-14-(cyclopropylmethyl)-10-hydroxy-2,3,3a,4,5,6,7,11c-octahydro-1H-6,11b-(epiminoethano)-1,5a-methanonaphtho[1,2-e]indole-3-carbonyl)pyridin-4(1H)-one]
- Emax (human opioid κ receptor; [2]): 6.7%

SMILES: O=C(c1cc(=O)cco1)N1C[C@H]2C[C@@]34CC[C@@H]1[C@@H]2[C@@]31CCN(CC2CC2)[C@@H]4Cc2ccc(O)cc21 [Example 19, 2-((1S,3aR,5aS,6R,11bR,11cS)-14-(cyclopropylmethyl)-10-hydroxy-2,3,3a,4,5,6,7,11c-octahydro-1H-6,11b-(epiminoethano)-1,5a-methanonaphtho[1,2-e]indole-3-carbonyl)-4H-pyran-4-one]
- Emax (human opioid κ receptor; [2]): 0.6%

SMILES: CCn1cc(C(=O)N2C[C@H]3C[C@@]45CC[C@@H]2[C@@H]3[C@@]42CCN(CC3CC3)[C@@H]5Cc3ccc(O)cc32)ccc1=O [Example 28, 5-((1S,3aR,5aS,6R,11bR,11cS)-14-(cyclopropylmethyl)-10-hydroxy-2,3,3a,4,5,6,7,11c-octahydro-1H-6,11b-(epiminoethano)-1,5a-methanonaphtho[1,2-e]indole-3-carbonyl)-1-ethylpyridin-2(1H)-one]
- Emax (human opioid κ receptor; read-out: κ receptor Emax): 13%

SMILES: Cn1cccc(C(=O)N2C[C@H]3C[C@@]45CC[C@@H]2[C@@H]3[C@@]42CCN(CC3CC3)[C@@H]5Cc3ccc(O)cc32)c1=O [Example 31, 3-((1S,3aR,5aS,6R,11bR,11cS)-14-(cyclopropylmethyl)-10-hydroxy-2,3,3a,4,5,6,7,11c-octahydro-1H-6,11b-(epiminoethano)-1,5a-methanonaphtho[1,2-e]indole-3-carbonyl)-1-methylpyridin-2(1H)-one hydrochloride]
- Emax (human opioid κ receptor; maximum reaction not reached, at maximum concentration (10 μM), U-69593 = 100%): 3.2* %

Reference: patent publication US11643411B2 (priority 2015, dated 2023)
